Experiment [1] addresses T1, HLA class I molecule B*0702 (Homo sapiens, UniProt P01889).
T1 construct: purchased ProImmune Ltd., Oxford, UK
The experiment is described as follows: REVEAL HLA-peptide binding assay, B*0702. On the set-up: concentration or dose not given beside the values. The settings on record: assembly of peptide-HLA complex by ELISA with conformation-dependent anti-HLA antibody, relative to positive control peptide for that allele, comparable within an allele only. As for the experimental part: (§1) The REVEAL HLA-peptide binding assay (ProImmune Ltd., Oxford, UK) was used to quantify peptide-HLA binding. For each allele-peptide combination that was tested, assembly of peptide-HLA complexes was quantified by ELISA with a conformation-dependent anti-HLA antibody. Samples of assembling peptide-HLA complexes were taken at a defined time point and snap-frozen in liquid nitrogen prior to analysis. The assembly for each peptide-HLA complex was then compared against a positive control peptide for that allele as the percentage of assembled peptide relative to that control. We selected four HLA class I alleles and 50 HTLV-1 peptides for each allele. The allele choice was based on allele frequency in the Kagoshima database and included 2 A alleles and 2 B alleles as well as alleles for which we knew that the epitope prediction tended to be poor. The 50 HTLV-1 nonamer peptides for each allele were selected to represent a range of predicted binding affinities, from weak to strong binding peptides. They originated from 4 HTLV-1 reference strain proteins: Tax, HBZ, Gag and Polymerase.
(§2) Note the binding score is with respect to a reference good binding peptide for each allele and therefore scores can be compared within an allele but not between alleles.
(In general: An ELISA detects its analyte on a solid surface through an enzyme-linked reagent.)

Experiment [2] addresses T2, HLA class I molecule A*0201 (Homo sapiens, UniProt P04439, D140Y/D185E/D98H/E176V/E277Q/G131W/G231S/I119V/I121R/I166T/I218V/L300P/L318F/N151K/N90K/P208A/P217A/Q86G/Q94H/R138H/R169H/T345S).
T2 construct: purchased ProImmune Ltd., Oxford, UK
The class given is binding. The conditions noted are these: REVEAL assay, assembly of peptide-HLA complex by ELISA with conformation-dependent anti-HLA antibody, relative to positive control peptide for that allele, comparable within an allele only.

In experiment [3] the target is HLA class I molecule B*3501 (Homo sapiens, UniProt P01889, A329T/A93T/A95T/C349S/D201E/D98Y/E176V/E187L/E204Q/E69T/I218V/K202T/L119I/Q94N/R155S/R180L/S121R/S35A/S48A/T118I/V127L/V306I/V36M/Y140S/Y91F). The experiment is described as follows: REVEAL HLA-peptide binding assay, B*3501. The settings on record: assembly of peptide-HLA complex by ELISA with conformation-dependent anti-HLA antibody, relative to positive control peptide for that allele, comparable within an allele only. As for the experimental part:
as §1, §2

The target of experiment [4] is T3, HLA class I molecule A*2402 (Homo sapiens, UniProt P04439, D101N/D140Y/D185E/E176V/E190D/F33S/G103R/G107R/I119L/I121M/I306V/K335N/L105A/L180Q/L300P/N151K/N90K/Q86E/Q94H/R106L/R138H/R89G/T104I/T345S/V100E/W191G/Y123F).
T3 construct: purchased ProImmune Ltd., Oxford, UK
The class given is binding. The settings on record: REVEAL assay, assembly of peptide-HLA complex by ELISA with conformation-dependent anti-HLA antibody, relative to positive control peptide for that allele, comparable within an allele only.

Experiment [5] relates to autologous B-LCL loaded with HBZ26–34 peptide. Kind of experiment: Chromium release assay, peptide-loaded B-LCL. It counts as cell-based, human. The settings on record: 1 µM HBZ 26–34 peptide, 4 h, ^51Cr release; data not shown. How it is done:
PBMC from HLA A*0201^+ and HLA A*0201^− HTLV-1 infected individuals were depleted of CD8^+ cells, then enriched for CD25^+ cells using MACS beads (Miltenyi Biotech, Germany), according to manufacturer's instructions. CD25^+ cells were cultured for 16h to allow for viral antigen expression and presentation, then labelled with ^51Cr by incubating for 1h in the presence of 50–100 µCi Na2CrO4 (MP Biomedicals, USA). Labelled cells were washed extensively and placed in culture in triplicate (40,000 cells/well) in the presence of defined ratios of HBZ-1, a CTL clone which recognises HBZ 26–34 in the context of HLA A*0201 [37], alone or in the presence of 5% Triton x-100 (Sigma Aldrich). As a control, ^51Cr labelled B-LCL (autologous to the CTL clone) were cultured at the same ratios, with and without 1 µM HBZ 26–34 peptide. […] Total specific lysis was calculated using the following formula: [chromium release (test well)−chromium release (no CTL control)]/ [chromium release (Triton−100% lysis)−chromium release (no CTL control)]*100, expressed as a percentage specific lysis of total cells. […] Percentage infected cells lysed was calculated using the following formula: [Percentage total cells lysed]/[fraction of CD4^+CD25^+ cells that are infected i.e. provirus positive].

For AAHHWLNFL [HTLV-1 nonamer peptide], the “Score (experimentally measured binding affinity, % binding compared to control peptide)” value in experiment [1] is listed as 27.59%; in experiment [2], 5.86%; in experiment [3] it was 0%.

In the case of ASGLFRCLP [HTLV-1 nonamer peptide], the “Score (experimentally measured binding affinity, % binding compared to control peptide)” value is recorded as 4.14% in experiment [4], 2% in experiment [1], 2.99% in experiment [2] and 0% in experiment [3].

On to AVLDGLLSL [HTLV-1 nonamer peptide], for which the “Score (experimentally measured binding affinity, % binding compared to control peptide)” value is 1.41% in experiment [4], 18.76% in experiment [1], 92.9% in experiment [2] and 0% in experiment [3].

FVERLNIAL [HTLV-1 nonamer peptide]: the “Score (experimentally measured binding affinity, % binding compared to control peptide)” value in experiment [1] is recorded as 104.14%; in experiment [2] it was 6.6%; in experiment [3], 13.69%.

GFGQSLLFG [HTLV-1 nonamer peptide]: the “Score (experimentally measured binding affinity, % binding compared to control peptide)” value is given as 1.06% in experiment [4], 0% in experiment [1], 0.29% in experiment [2] and 0% in experiment [3].

As to “GLLSLEEEL [HTLV-1 nonamer peptide, HBZ26–34, recognised in the context of HLA-A*0201]”, the “Score (experimentally measured binding affinity, % binding compared to control peptide)” value in experiment [2] amounted to 63.68%. Moreover, the “Lysis of peptide-loaded autologous B-LCL by the HBZ-specific CD8^+ T cell clone” value in experiment [5] is on record as “could be lysed by the CD8^+ T cell clone”.

Regarding IQYSSFHSL [HTLV-1 nonamer peptide], the “Score (experimentally measured binding affinity, % binding compared to control peptide)” value was found to be 87.52% in experiment [4], 2.94% in experiment [1] and 93.93% in experiment [2].

KALMPVFTL [HTLV-1 nonamer peptide]: the “Score (experimentally measured binding affinity, % binding compared to control peptide)” value in experiment [4] is 8.05%; in experiment [1], 40.22%; in experiment [2], 79.88%; in experiment [3] it was 11.5%.

As for LAAHHWLNF [HTLV-1 nonamer peptide], the results for the “Score (experimentally measured binding affinity, % binding compared to control peptide)” value in experiment [4], in experiment [1] and in experiment [3] were 35.91%, 4.59% and 75.12%, respectively.

Turning to QAMRKYSPF [HTLV-1 nonamer peptide], the entries for the “Score (experimentally measured binding affinity, % binding compared to control peptide)” value in experiment [4], in experiment [1] and in experiment [3] were 56.78%, 140.22% and 69.18%, respectively.

Turning to RICPINYSL [HTLV-1 nonamer peptide], the “Score (experimentally measured binding affinity, % binding compared to control peptide)” value in experiment [4] was 77.87%; in experiment [1], 110.59%; in experiment [2], 71.46%.

Regarding RVIGSALQF [HTLV-1 nonamer peptide], the “Score (experimentally measured binding affinity, % binding compared to control peptide)” value in experiment [4] amounted to 65.17%; in experiment [1], 87.63%; in experiment [3] it was 42.94%.

With RVNEILHIL [HTLV-1 nonamer peptide], the “Score (experimentally measured binding affinity, % binding compared to control peptide)” value in experiment [1] is 89.83%; in experiment [2], 49.35%; in experiment [3], 8.02%.

On to SAQWIPWRL [HTLV-1 nonamer peptide], for which the “Score (experimentally measured binding affinity, % binding compared to control peptide)” value was determined as 27.07% in experiment [4], 0% in experiment [1], 24.03% in experiment [2] and 14.94% in experiment [3].

With SLVQLRQAL [HTLV-1 nonamer peptide], the “Score (experimentally measured binding affinity, % binding compared to control peptide)” value in experiment [1] was 119.22%; in experiment [2], 6.84%; in experiment [3] it was 0%.

Consider TFLKTAAPL [HTLV-1 nonamer peptide], for which the “Score (experimentally measured binding affinity, % binding compared to control peptide)” value in experiment [4] was 86.12%; in experiment [1], 28.15%.

The values are drawn from publication PMC2944806, “HLA Class I Binding of HBZ Determines Outcome in HTLV-1 Infection” (PLoS Pathogens, 2010).
